From the supplement of paper PMC4862054
Values joined by “and” are separate entries in the source; they are usually repeats but may differ in a detail not shown here. Equal values may be shown once.

How the values were obtained:
BT-549 [1] = assay: normalised viability (% of control), CellTiter-Blue; higher = more viable cells (about 100 = DMSO control); conditions: incubation time: 72 h
Outline: (§1)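 The reported figure is normalised viability at a single listed concentration of the series. Breast cancer cell lines (20 µl suspension) went onto 384-well plates holding compound in 5 µl medium for 72 h. CellTiter-Blue (2.5 µl, 2 h, 37 °C) was read by fluorescence at 560/590 nm, and each plate was scaled to vehicle at 100 and a positive kill control at 0.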

BT-474 [2] = assay: as above; conditions: incubation time: 72 h
Outline: as §1

CAL-51 [3] = assay: as above; conditions: incubation time: 72 h
Outline: as §1

MFM-223 [4] = assay: as above; conditions: incubation time: 72 h
Outline: as §1

CAL-120 [5] = conditions: 72 h
Outline: (§2)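 Compound dissolved in 5 µl medium was placed in 384-well plates before 20 µl of breast cancer cell suspension was added, and the plates were incubated for 72 h. Cells then received 2.5 µl CellTiter-Blue for 2 h at 37 °C, and fluorescence was read at 560/590 nm. EC50 values come from percent-inhibition dose-response fits that were censored at the highest concentration, with plates normalised to vehicle and a positive kill control and rows with a zero drug sensitivity score excluded.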

HCC1937 = assay: normalised response (% of control), CellTiter-Glo; higher = more viable cells (100 = DMSO, 0 = benzethonium chloride kill control); conditions: incubation time: 72 h
Outline: (§3)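 Each value is the plate-normalised signal at one concentration of the series. Breast cancer cell lines (20 µl suspension) were incubated 72 h in 384-well plates with compound at 5 concentrations in 10-fold steps over a compound-specific 10,000-fold range. CellTox Green and then CellTiter-Glo were read, and each plate was scaled to 0.1 % DMSO (100) and a positive kill control (0).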

Hs578T [6] = assay: as above; conditions: incubation time: 72 h
Outline: as §3

HCC1143 = assay: as above; conditions: incubation time: 72 h
Outline: as §3

HCC1599 = assay: as above; conditions: incubation time: 72 h
Outline: as §3

MDA-MB-453 = assay: as above; conditions: incubation time: 72 h
Outline: as §3

MDA-MB-231 [7] = assay: as above; conditions: incubation time: 72 h
Outline: as §3

CAL-120 [8] = assay: as above; conditions: incubation time: 72 h
Outline: as §3

DU-4475 = assay: as above; conditions: incubation time: 72 h
Outline: as §3

CAL-85-1 = assay: as above; conditions: incubation time: 72 h
Outline: as §3

BT-549 [9] = assay: as above; conditions: incubation time: 72 h
Outline: as §3

BT-474 [10] = assay: as above; conditions: incubation time: 72 h
Outline: as §3

CAL-148 = assay: as above; conditions: incubation time: 72 h
Outline: as §3

MCF-10A = assay: as above; conditions: incubation time: 72 h
Outline: as §3

SK-BR-3 [11] = assay: as above; conditions: incubation time: 72 h
Outline: as §3

HDQ-P1 = assay: as above; conditions: incubation time: 72 h
Outline: as §3

MDA-MB-468 [12] = assay: as above; conditions: incubation time: 72 h
Outline: as §3

CAL-51 [13] = assay: as above; conditions: incubation time: 72 h
Outline: as §3

MFM-223 [14] = assay: as above; conditions: incubation time: 72 h
Outline: as §3

Hs578T [15] = conditions: 72 h
Outline: as §2

MDA-MB-231 [16] = conditions: 72 h
Outline: as §2

BT-549 [17] = conditions: 72 h
Outline: as §2

BT-474 [18] = conditions: 72 h
Outline: as §2

SK-BR-3 [19] = conditions: 72 h
Outline: as §2

MDA-MB-468 [20] = conditions: 72 h
Outline: as §2

MDA-MB-436 = conditions: 72 h
Outline: as §2

MFM-223 [21] = conditions: 72 h
Outline: as §2

Row | Structure (SMILES) | normalised viability (BT-549 [1]; 10 nM) | normalised viability (BT-549 [1]; 1000 nM) | normalised viability (BT-549 [1]; 10000 nM) | normalised viability (BT-474 [2]; 10 nM) | normalised viability (BT-474 [2]; 1000 nM) | normalised viability (BT-474 [2]; 10000 nM) | normalised viability (CAL-51 [3]; 3 nM) | normalised viability (CAL-51 [3]; 30 nM) | normalised viability (CAL-51 [3]; 100 nM) | normalised viability (MFM-223 [4]; 10 nM) | normalised viability (MFM-223 [4]; 1000 nM) | normalised viability (MFM-223 [4]; 10000 nM) | EC50, CellTiter-Blue viability (CAL-120 [5]) | normalised response (HCC1937) | normalised response (Hs578T [6]) | normalised response (HCC1143) | normalised response (HCC1599) | normalised response (MDA-MB-453) | normalised response (MDA-MB-231 [7]) | normalised response (CAL-120 [8]) | normalised response (DU-4475) | normalised response (CAL-85-1) | normalised response (BT-549 [9]) | normalised response (BT-474 [10]) | normalised response (CAL-148) | normalised response (MCF-10A) | normalised response (SK-BR-3 [11]) | normalised response (HDQ-P1) | normalised response (MDA-MB-468 [12]) | normalised response (CAL-51 [13]) | normalised response (MFM-223 [14]) | EC50, CellTiter-Blue viability (Hs578T [15]) | EC50, CellTiter-Blue viability (MDA-MB-231 [16]) | EC50, CellTiter-Blue viability (BT-549 [17]) | EC50, CellTiter-Blue viability (BT-474 [18]) | EC50, CellTiter-Blue viability (SK-BR-3 [19]) | EC50, CellTiter-Blue viability (MDA-MB-468 [20]) | EC50, CellTiter-Blue viability (MDA-MB-436) | EC50, CellTiter-Blue viability (MFM-223 [21])
1 | NC(=O)c1ccc(I)c([N+](=O)[O-])c1 [Iniparib] | 104% | 112% | 116% | 95.2% | 106% | 96.6% | 92.6% | 92.9% | 96.4% | 93.9% | 99% | 95.4% | 3.29 µM |  |  |  |  |  |  |  |  |  |  |  |  |  |  |  |  |  |  |  |  |  |  |  |  |  | 
2 | COc1cc2ncnc(Nc3ccc(F)c(Cl)c3)c2cc1OCCCN1CCOCC1 [Gefitinib] (10000 nM) |  |  |  |  |  |  |  |  |  |  |  |  |  | 60.9% | 97% | 77% | 81.9% | 60.3% | 70.5% | 83.6% | 104% | 34.7% | 73.6% | 69.8% | 69.7% | 26.1% | 27.1% | 56% | 38.1% | 100% | 75% |  |  |  |  |  |  |  | 
3 | COC(=O)c1ccc2c(c1)NC(=O)/C2=C(\Nc1ccc(N(C)C(=O)CN2CCN(C)CC2)cc1)c1ccccc1 [BIBF 1120] | 105% | 111% | 16.4% | 127% | 92.5% | 58.6% | 104% | 96.3% | 100% | 99.5% | 57% | 36.6% | 3.64 µM |  |  |  |  |  |  |  |  |  |  |  |  |  |  |  |  |  |  | 7.05 µM | 4.16 µM | 5.43 µM | 1.85 µM | 7.75 µM | 5.61 µM | 9.11 µM | 0.555 µM
4 | C=C1C[C@@H]2[C@H](CC[C@]3(C)C(=O)CC[C@@H]23)[C@@]2(C)C=CC(=O)C=C12 [Exemestane] (10000 nM) |  |  |  |  |  |  |  |  |  |  |  |  |  | 89.5% | 102% | 94.1% | 107% | 95.7% | 104% | 101% | 108% | 97.7% | 94.5% | 108% | 112% | 107% | 89.3% | 92.3% | 76.3% | 81.7% | 94.5% |  |  |  |  |  |  |  | 
5 | COc1cc(OC2CCN(C)CC2)ccc1Nc1ncc2c(n1)n(C1CCCC1)c(=O)n2C [AZ 3146] | 75.4% | 89.5% | 62% | 110% | 96.2% | 122% | 97.5% | 88.7% | 87.8% | 102% | 102% | 84.4% | > 10 µM |  |  |  |  |  |  |  |  |  |  |  |  |  |  |  |  |  |  |  | 8.03 µM |  |  | 1.05 µM |  |  | 
6 | COc1cc2ncnc(Nc3ccc(F)c(Cl)c3)c2cc1OCCCN1CCOCC1 [Gefitinib] | 92.3% and 89.6% | 89% and 101% | 65.2% and 59.6% | 104% and 116% | 58.7% and 65.5% | 27.3% and 22.7% | 107% and 110% | 104% and 106% | 108% and 102% | 89.2% and 87.1% | 92.2% and 89% | 71.9% and 64.2% | > 10 µM |  |  |  |  |  |  |  |  |  |  |  |  |  |  |  |  |  |  | 1.06 µM | > 10 µM |  | 1.01 µM | 1.58 µM | 0.808 µM |  | 
7 | COCC[n+]1c2c(n(Cc3cnccn3)c1C)C(=O)c1ccccc1C2=O [YM155] (10000 nM) |  |  |  |  |  |  |  |  |  |  |  |  |  | 0.28% | -0.62% | -0.39% | -0.77% | -0.58% | -0.19% | -0.38% | -0.36% | -0.28% | -0.36% | 1.71% | -0.38% | -0.72% | -0.43% | 1.64% | -0.19% | -0.12% | 5.6% |  |  |  |  |  |  |  | 
8 | c1ccc2c(CCNc3ccc(Nc4ccncc4)cc3)c[nH]c2c1 [Serdemetan] | 95.6% | 81.5% | 26.5% | 106% | 106% | 94.4% | 118% | 106% | 108% | 83.2% | 104% | 66.4% |  |  |  |  |  |  |  |  |  |  |  |  |  |  |  |  |  |  |  | 1.54 µM |  | 1.56 µM |  |  |  | 0.54 µM | 
9 | CN(C)CCOc1ccc(/C(=C(/CCCl)c2ccccc2)c2ccccc2)cc1 [Toremifene] | 106% | 113% | 88.1% | 132% | 119% | 92.4% | 107% | 98.4% | 110% | 98.1% | 96.1% | 71.8% |  |  |  |  |  |  |  |  |  |  |  |  |  |  |  |  |  |  |  |  |  |  |  |  | 5.6 µM | 2.2 µM | 
